# Data from patent publication US7632971B2, “Method of crystallization of bicalutamide” (Sumitomo Chemical Company, Limited, priority 2004, dated 2009).
# Columns and labels:
# [1] = Particle size distribution by laser diffraction (Mastersizer 2000); type: physicochemical
# Protocol: In the invention, Dpn is a unit referring to a particle size of crystal, and n is a value covering from 1 to 100. For example, Dp10 is defined as a diameter of the particle where particles are accumulated from the one having a smaller size and reach to the accumulated particle volume of 10%.
# Add 1000 mL of water to 5 g of Triton X-100, mix well. Add 0.1 g of bicalutamide and sonicate for 15 minutes, the filter using 0.45 μm membrane filter and use this solution as the dispersant. Rinse the dispersion unit and the measurement instrument with the dispersant and replace it in the instruments with the fresh one, then measure background. After weighing, suspend about 0.05 g of bicalutamide crystals in the 20 ml of dispersant and sonicate for 5 minutes, and make up with the dispersant to 100 mL. Redisperse this suspension with a pipet and pour this sample into the dispersion unit so that an obscuration is 10.0 to 20.0%. After the stabilizing period of 12 minutes, start the measurement under the following condition. Determine 10% diameter, 50% diameter, and 90% diameter according to an integrated distribution curve to be Dp10, Dp50 and Dp90, respectively.
# • Instrument model: Laser diffraction particle size analyzer Mastersizer 2000 (Malvern) • Dispersion unit: Hydro2000S • Stirrer speed of dispersion unit: 2300 rpm • Particle Refraction Index of sample: 1.670 Absorption: 0.001 • Dispersant Refraction Index: 1.330 • Analysis model: General purpose • Calculation sensitivity: Enhanced • Particle shape: Irregular • Size range: 0.020-2000.000 μm • Measurement integration period: 12 seconds • Backgroupd integration period: 12 seconds (Specific Surface Area)
# With using the above-mentioned laser diffraction particle size distribution analyzer (Mastersizer 2000 (Malvern)), a particle size distribution was measured under the same conditions mentioned above.
# [2] = Specific surface area by nitrogen gas absorption (BET equation, COULTER SA3100); type: physicochemical
# Protocol: The specific surface area in the invention is defined as a surface area per 1 g of particles, and represented by a value measured by the following method.
# A sample is deaerated overnight in a vacuum dryer at 40° C. as a pre-treatment before being subjected to a measurement. The measurement is conducted as follows: a given amount of an absorbing gas (nitrogen gas) is absorbed by a sample, the values of a relative pressure (P/PO) and an absorbed gas volume are determined in each absorption step, and then a specific surface area is calculated according to the BET equation using the values. COULTER™ SA3100™ Series Surface Area and Pore size Analyzer is used as a measurement device. After measuring the sample mentioned above, the specific surface area at around the relative pressure of 0.05 to 0.2 is calculated.
# Furthermore, the specific surface area of the crystals obtained by one time milling was measured with the COULTER™ SA3100™ Series Surface Area and Pore size Analyzer mentioned above under the same conditions mentioned above.
# [3] = crystals as obtained by crystallization, not milled
# [4] = crystals obtained by two times milling (CT-401 ATOMIZER)
# [5] = crystals obtained by one time milling (spiral jet-mill 50AS)
"Dp10 (particle size) [1, 3] [μm]","Dp50 (particle size) [1, 3] [μm]","Dp90 (particle size) [1, 3] [μm]","Dp10 (particle size) [1, 4] [μm]","Dp50 (particle size) [1, 4] [μm]","Dp90 (particle size) [1, 4] [μm]","specific surface area [2, 3] [m^2/g]","specific surface area ([2]; crystals obtained by one time milling, relative pressure 0.05 to 0.2) [m^2/g]","Dp10 (particle size) [1, 5] [μm]","Dp50 (particle size) [1, 5] [μm]","Dp90 (particle size) [1, 5] [μm]",SMILES
45.6,90.7,177.6,3.1,15.9,57.8,–,–,–,–,–,"CC(O)(CS(=O)(=O)c1ccc(F)cc1)C(=O)Nc1ccc(C#N)c(C(F)(F)F)c1 (centres unmarked) [Comparative Example 1, bicalutamide]"
39.5,119.6,273.1,–,–,–,0.2,–,–,–,–,"CC(O)(CS(=O)(=O)c1ccc(F)cc1)C(=O)Nc1ccc(C#N)c(C(F)(F)F)c1 (centres unmarked) [Comparative Example 2, bicalutamide]"
5.3,14.5,30.6,–,–,–,–,1.8,1.8,4.2,10.5,"CC(O)(CS(=O)(=O)c1ccc(F)cc1)C(=O)Nc1ccc(C#N)c(C(F)(F)F)c1 (centres unmarked) [Example 1, bicalutamide]"
45.6,90.7,177.6,–,–,–,–,–,–,–,–,CC(O)(CS(=O)(=O)c1ccc(F)cc1)C(=O)Nc1ccc(C#N)c(C(F)(F)F)c1 (centres unmarked) [bicalutamide]
